Source: paper PMC9396645 (Frontiers in Chemistry, 2022)
Where two headings read alike, the source gives them in different places.

Experiments:
C4-2 cells = assay: Internalization efficiency / specific cell uptake in C4-2 cells; type: cell-based, human
Experimental: The specific internalization ratio was determinated in 24-well plates. The plates were previously coated with 0.1% poly-L-lysine in PBS for 20 min and washed with PBS once. C4-2 cells (10^5 cells per analysis) were added to each well and equilibrated overnight. The cells were incubated for 45 min with 250 µL of a 30 nM solution of the ^68Ga-labeled compounds either in a water bath at 37°C or on ice. The PSMA-receptor-blocking agent 2-(phosphonomethyl)pentanedioic acid (2-PMPA; 500 μM; Axxora) was used to verify the specificity of the cellular uptake of the novel compounds. The cells were washed thrice (using 1 ml of ice-cold PBS), followed by an incubation with 0.5 ml of a glycine solution (50 mM in HCl at a pH of 2.8) for 5 min, washed once with 1 ml of ice-cold PBS, and finally lysed with 0.5 ml of 0.3 M NaOH. The lysate was collected, and the radioactivity was measured in a gamma-counter. Triplicate measurements were performed for all experiments.

prostate cancer patients = system: prostate cancer patients; set-up: method as in earlier work; conditions: patients PET/CT, ref Afshar-Oromieh et al. (2015a) and Afshar-Oromieh et al. (2015b), cited from earlier work
[1] = system: C4-2 tumor bearing BALB/c nu/nu mice; assay: Small-animal PET imaging in C4-2 tumor bearing mice; type: in vivo, mouse; conditions: mean SUV from PET, 2 h p.i.
From the text: Athymic male nude mice (BALB/c nu/nu) were purchased from Charles River at 4‒5 weeks of age (19–23 g). The mice were kept under pathogen-free conditions for 1 week prior to the study. The mice had free access to water and food and were housed with a 12-h/12-h light/dark cycle. The xenografts required for positron emission tomography (PET) imaging and biodistribution studies were obtained by inoculation of 5 × 10^7 C4-2 cells in 50% Matrigel in Opti-MEM I (1 ×) medium. For this purpose, the mice were anesthetized with 2% sevoflurane, and inoculation was performed subcutaneously on the right trunk. When the size of the tumor was approximately 1 cm^3, the studies were performed.
For small-animal PET imaging, the different ^68Ga-labeled PSMA ligands (0.5 nmol, 20 MBq in approximately 100 µL 0.9% saline) were injected into C4-2 tumor bearing mice. The dynamic PET was recorded in a small animal PET scanner (Siemens Inveon D-PET). The standardized uptake values (SUVs) were obtained from conventional (non-dynamic) PET images. The formula for the SUV was SUV=activity in ROI (Bq/ml) × animal weight (g)/injected dose(Bq)
Manual delineation of the respective appropriate whole organ (heart, kidneys, bladder, tumor, with an approximate volume of 100–500 µL) yielded the volumes of interest (VOIs). For this purpose, whole organs or parts of the organ/tissue (liver and muscle) were used. The images were reconstructed based on the procedure: OSEM 3D/SP MAP with 16 subsets, two iterations, and an image x-y size: 256, image z size: 161. The data were not modified with a post-processing filter. Analysis of the images and time-activity curves (TACs) was conducted on the Inveon™ Acquisition Workplace (IAW) from Siemens IRW 4.1. […] […] The mean SUVs were plotted over time in order to compare the different radiotracers.

[2] = ^68Ga-labeled compounds 30 nM, 45 min, 37°C, specificity by 2-PMPA 500 μM, mean ± SD (n = 3)

O=C(O)CC[C@H](NC(=O)N[C@@H](CCCCNC(=O)[C@H](Cc1ccc2ccccc2c1)NC(=O)[C@H]1CC[C@H](CNC(=O)CN2CCN(CC(=O)O)CCN(CC(=O)O)CCN(CC(=O)O)CC2)CC1)C(=O)O)C(=O)O [PSMA-617, reference compound]
specific internalization in C4-2 cells (C4-2 cells; Table 2): 15.6 % ID/10^6 cells | Specific cell surface (C4-2 cells; [2]): 45.18 ± 3.61 %IA/10^6cells | Specific lysate (internalization) (C4-2 cells; [2]): 15.55 ± 3.07 %IA/10^6 cells

O=C([O-])CN1CCN(CC(=O)[O-])CCN(CC(=O)NCC2CCC(C(=O)NC(Cc3ccc4ccccc4c3)C(=O)NCCCCC(NC(=O)NC(CCC(=O)O)C(=O)O)C(=O)O)CC2)CCN(CC(=O)[O-])CC1.[68Ga+3] (stereo not shown) [^68Ga-PSMA-617]
Specific lysate (internalization) (C4-2 cells; [2]): 15.5 ± 3.1 %IA/10^6 cells | SUV mean Blood pool, mediastinal (prostate cancer patients; 1 h p.i.): 2.5 | SUV mean Bone metastasis (prostate cancer patients; 1 h p.i.): 9.4 | SUV mean Colon (prostate cancer patients; 1 h p.i.): 3.5 | SUV mean Gluteal muscle (prostate cancer patients; 1 h p.i.): 0.7 | SUV mean Kidneys (prostate cancer patients; 1 h p.i.): 15.6 | SUV mean Lacrimal gland (prostate cancer patients; 1 h p.i.): 4.9 | SUV mean Liver (prostate cancer patients; 1 h p.i.): 3.3 | SUV mean Lymph node (prostate cancer patients; 1 h p.i.): 7.1 | SUV mean Nasal mucosa (prostate cancer patients; 1 h p.i.): 2.9 | SUV mean Parotid gland (prostate cancer patients; 1 h p.i.): 10.4 | SUV mean Proximal small intestine (prostate cancer patients; 1 h p.i.): 4.7 | SUV mean Spleen (prostate cancer patients; 1 h p.i.): 4.3 | SUV mean Sublingual gland (prostate cancer patients; 1 h p.i.): 4.6 | SUV mean Submandibular gland (prostate cancer patients; 1 h p.i.): 10 | SUV mean Blood pool, mediastinal (prostate cancer patients; 3 h p.i.): 2.4 | SUV mean Bone metastasis (prostate cancer patients; 3 h p.i.): 6.3 | SUV mean Colon (prostate cancer patients; 3 h p.i.): 4.0 | SUV mean Gluteal muscle (prostate cancer patients; 3 h p.i.): 0.7 | SUV mean Kidneys (prostate cancer patients; 3 h p.i.): 17.0 | SUV mean Lacrimal gland (prostate cancer patients; 3 h p.i.): 5.9 | SUV mean Liver (prostate cancer patients; 3 h p.i.): 2.7 | SUV mean Lymph node (prostate cancer patients; 3 h p.i.): 13.5 | SUV mean Nasal mucosa (prostate cancer patients; 3 h p.i.): 3.4 | SUV mean Parotid gland (prostate cancer patients; 3 h p.i.): 13.1 | SUV mean Proximal small intestine (prostate cancer patients; 3 h p.i.): 5.5 | SUV mean Spleen (prostate cancer patients; 3 h p.i.): 3.5 | SUV mean Sublingual gland (prostate cancer patients; 3 h p.i.): 4.0 | SUV mean Submandibular gland (prostate cancer patients; 3 h p.i.): 12.4

O=C([O-])CN1CCN(CC(=O)[O-])CCN(C(CCC(=O)NCc2ccc(NC(=S)NCC3CCC(C(=O)NC(Cc4ccc5ccccc5c4)C(=O)NCCCCC(NC(=O)NC(CCC(=O)O)C(=O)O)C(=O)O)CC3)cc2)C(=O)O)CCN(CC(=O)[O-])CC1.[68Ga+3] (stereo not shown) [^68Ga-CA029]
Specific lysate (internalization) (C4-2 cells; [2]): 44.3 ± 3.9 %IA/10^6 cells | tumor-to-kidney ratio [1]: 0.52
